In patent publication US11970455B1, “7-(4-fluorobenzylidene)-4-(4-fluorophenyl)-2-methoxy-6,7-dihydro-5H-cyclopenta[b]pyridine-3-carbonitrile as an antimicrobial compound” (KING FAISAL UNIVERSITY, priority 2023, dated 2024) one finds inhibition activity and melting point data, which are given here for one compound.

One data set relates to Staphylococcus aureus. Put plainly: Antimicrobial testing by agar dilution, St. Aereus. The class given is cell-based. Particulars: after 10, 20, 40 and 60 min at all dilutions 1:100, 1:200, 1:400, 1:800. As for the experimental part: (§1) The antimicrobial properties of the 7-(4-fluorobenzylidene)-4-(4-fluorophenyl)-2-methoxy-6,7-dihydro-5H-cyclopenta[b]pyridine-3-carbonitrile was studied by the method of agar dilution. Test solutions of each compound was prepared in concentration of 1% using dimethylformamide as a solvent then they are diluted in physiological solution to obtain the final experimental dilutions 1:100, 1:200, 1:400, 1:800. The effect of these substances are compared with furacillin in a controllable study. The testing microbes used were gram positive bacteria Staphylococcus aureus, gram negative bacteria Pseudomonas aeruginosa, Escherichia coli and Candida albicans fungi were taken. The experiments used for this survey were meat-pentonlu agar (EPA) for cultivation of bacteria and Saburo environment for fungi. Each experiment used 1 mL of test solution on each plate 500 min. Add 2 drops of emulsified with microbes feel. All experimental samples were taken from the agar after 10, 20, 40, 60 minutes in the environment on the basis of Patrk planted. Bacteria were cultivated at a temperature of 37° C. for 1 day and the mushroom was kept in a thermostat for […] at a temperature of 28° C. Then the results were checked.
In general terms: Agar dilution tests growth on a series of plates holding different concentrations.

The subject of another data set is Escherichia coli. Put plainly: Antimicrobial testing by agar dilution, E. Coli. It is filed as cell-based. The conditions noted are these: after 10, 20, 40 and 60 min at all dilutions 1:100, 1:200, 1:400, 1:800. Here is the method: as §1
The next data set relates to Candida albicans. Put plainly: Antimicrobial testing by agar dilution, Candida albicans. The class given is cell-based. Particulars: after 10, 20, 40 and 60 min at all dilutions 1:100, 1:200, 1:400, 1:800. Here is the method: as §1
The subject of a further data set is Pseudomonas aeruginosa. In words: Antimicrobial testing by agar dilution, Ps. aeruginosa. It is filed as cell-based. Particulars: after 10, 20, 40 and 60 min at all dilutions 1:100, 1:200, 1:400, 1:800. Here is the method: as §1

The term melting point denotes the temperature, or range, at which the solid turns liquid. Regarding `COc1nc2c(c(-c3ccc(F)cc3)c1C#N)CC/C2=C\c1ccc(F)cc1` [7-(4-fluorobenzylidene)-4-(4-fluorophenyl)-2-methoxy-6,7-dihydro-5H-cyclopenta[b]pyridine-3-carbonitrile], the melting point was in the range of 136 to 138 °C. Moreover, the inhibition activity entry in the data set on Staphylococcus aureus was “most higher inhibition activity”. In addition, the inhibition activity result in the data set on Escherichia coli is recorded as “most higher inhibition activity”. Moreover, the inhibition activity entry in the data set with Candida albicans was “most higher inhibition activity”. In addition, the inhibition activity entry in the data set with Pseudomonas aeruginosa is recorded as “most higher inhibition activity”.
